Data reported in ChEMBL document CHEMBL1156849, “Synthesis, immunosuppressive activity and structure-activity relationship study of a new series of 4-N-piperazinyl-thieno[2,3-d]pyrimidine analogues” (Bioorg Med Chem Lett, 2010).
pIC50: −log10 of the molar value.

system: Lymphocyte; experiment: Immunosuppressive activity in lymphocytes by mixed lymphocyte reaction assay; type: functional, cell-based

Row | SMILES | pIC50
1 | Nc1nc(N2CCN(C(=O)CCc3ccccc3)CC2)c2cc(-c3ccc(F)cc3)sc2n1 | 5.16
2 | CC(C)N(C(=O)N1CCN(c2nc(N)nc3sc(-c4ccc(F)cc4)cc23)CC1)C(C)C | 5.09
3 | CN(C(=O)CN1CCN(c2nc(N)nc3sccc23)CC1)c1ccccc1 | 5.09
4 | Nc1nc(N2CCN(C(=O)C3CCCCC3)CC2)c2cc(-c3ccc(F)cc3)sc2n1 | < 5.00
5 | Nc1nc(N2CCN(C(=O)c3cccnc3)CC2)c2cc(-c3ccc(F)cc3)sc2n1 | < 5.00
6 | C/C=C/C[C@@H](C)[C@@H](O)[C@H]1C(=O)N[C@@H](CC)C(=O)N(C)CC(=O)N(C)[C@@H](CC(C)C)C(=O)N[C@@H](C(C)C)C(=O)N(C)[C@@H](CC(C)C)C(=O)N[C@@H](C)C(=O)N[C@H](C)C(=O)N(C)[C@@H](CC(C)C)C(=O)N(C)[C@@H](CC(C)C)C(=O)N(C)[C@@H](C(C)C)C(=O)N1C [CYCLOSPORINE] | 7.27

Continued, values first:

Row | pIC50 | SMILES
7 | 7.18 | Nc1nc(N2CCN(C(=O)COc3ccc(F)cc3)CC2)c2ccsc2n1
8 | 6.49 | Nc1nc(N2CCN(C(=O)COc3ccc(Br)cc3)CC2)c2ccsc2n1
9 | 6.03 | Cc1cccc(NC(=O)N2CCN(c3nc(N)nc4sccc34)CC2)c1
10 | 5.17 | Nc1nc(N2CCN(C(=O)Nc3ccc(Cl)cc3)CC2)c2ccsc2n1
11 | 6.48 | Nc1nc(N2CCN(C(=O)COc3ccc(Cl)cc3)CC2)c2ccsc2n1
12 | 6.11 | Nc1nc(N2CCN(C(=O)COc3ccccc3)CC2)c2ccsc2n1
13 | 6.68 | Cc1cccc(OCC(=O)N2CCN(c3nc(N)nc4sccc34)CC2)c1
14 | 7.14 | COc1ccc(OCC(=O)N2CCN(c3nc(N)nc4sccc34)CC2)cc1
15 | 5.02 | Nc1nc(N2CCN(CCOc3ccccc3)CC2)c2ccsc2n1
